For data set [1], the species on record is Mus musculus. The data set is described as follows: Ratio of number of mice that survived after 50 days among eight mice tested. Type of data set: functional.
A short description of data set [2]: Cytotoxicity against L-1210 cells. Type of data set: cell-based, L1210. The note with it: mouse, read-out: ED50 (the source's name).
The nature of data set [3]: Antitumor activity against S-180 cells after i.p. administration in mice up to 7 days at a dose of 16 umol/kg. The data set is classed as functional, Mus musculus.

Broadly, the T/C is the result in the treated group divided by that in the control group, in per cent.

In brackets after ≈: the same amount, converted by molar mass.

Regarding `CCCCCCCC(OC(=O)C(Cc1ccc(N(CCCl)CCCl)cc1)NC=O)c1cc(O)c2c(c1O)C(=O)c1ccccc1C2=O` (stereo not drawn), the Survival ratio in data set [1] is 0. Besides, the CC50 in data set [2] was 5.9 µg/mL (≈ 8.63 µM). In addition, in data set [3], the T/C is 205%.

Consider `O=CNC(Cc1ccc(N(CCCl)CCCl)cc1)C(=O)OCc1cc(O)c2c(c1O)C(=O)c1ccccc1C2=O` (stereo not drawn), for which the Survival ratio in data set [1] was found to be 3. Moreover, in data set [2], the CC50 worked out at 0.086 µg/mL (≈ 0.147 µM). The T/C in data set [3] is given as 265%.

Turning to `CCCCCC(O)c1cc(O)c2c(c1O)C(=O)c1ccccc1C2=O` (stereo not drawn), in data set [2], the CC50 was 58 µg/mL (≈ 170 µM). The same molecule registered a T/C in data set [3] of 108%.

As to `CCCC(OC(=O)C(Cc1ccc(N(CCCl)CCCl)cc1)NC=O)c1cc(O)c2c(c1O)C(=O)c1ccccc1C2=O` (stereo not drawn), in data set [1], the Survival ratio is recorded as 3. The CC50 in data set [2] was 0.97 µg/mL (≈ 1.55 µM). For the same molecule, in data set [3], the T/C was determined as 240%.

`CCCCCC(OC(=O)C(Cc1ccc(N(CCCl)CCCl)cc1)NC=O)c1cc(O)c2c(c1O)C(=O)c1ccccc1C2=O` (stereo not drawn): the Survival ratio in data set [1] came out at 1. Further, the CC50 in data set [2] came to 3.1 µg/mL (≈ 4.73 µM). The same molecule yielded a T/C in data set [3] of 230%.

For `CCCCC(O)c1cc(O)c2c(c1O)C(=O)c1ccccc1C2=O` (stereo not drawn), in data set [2], the CC50 was found to be 23.7 µg/mL (≈ 72.6 µM). The molecule also yielded a T/C in data set [3] of 110%.

As for `CCCC(O)c1cc(O)c2c(c1O)C(=O)c1ccccc1C2=O` (stereo not drawn), the CC50 in data set [2] stood at 10.2 µg/mL (≈ 32.7 µM). Moreover, the T/C in data set [3] was 125%.

As to `CCCCC(OC(=O)C(Cc1ccc(N(CCCl)CCCl)cc1)NC=O)c1cc(O)c2c(c1O)C(=O)c1ccccc1C2=O` (stereo not drawn), the Survival ratio in data set [1] turned out to be 2. In addition, the CC50 in data set [2] amounted to 0.4 µg/mL (≈ 0.623 µM). In data set [3], this molecule gave a T/C of 230%.

Consider `CCCCCCC(O)c1cc(O)c2c(c1O)C(=O)c1ccccc1C2=O` (stereo not drawn), for which the CC50 in data set [2] stood at 60 µg/mL (≈ 169 µM). Besides, in data set [3], the T/C came to 115%.

On to `CC(OC(=O)C(Cc1ccc(N(CCCl)CCCl)cc1)NC=O)c1cc(O)c2c(c1O)C(=O)c1ccccc1C2=O` (stereo not drawn), for which the Survival ratio in data set [1] is 6. Moreover, the CC50 in data set [2] worked out at 0.12 µg/mL (≈ 0.2 µM). The T/C in data set [3] turned out to be 272%.

Turning to `CC(O)c1cc(O)c2c(c1O)C(=O)c1ccccc1C2=O` (stereo not drawn), in data set [2], the CC50 turned out to be 1.9 µg/mL (≈ 6.68 µM). Besides, the T/C in data set [3] is reported as 139%.

For the molecule `CCC(OC(=O)C(Cc1ccc(N(CCCl)CCCl)cc1)NC=O)c1cc(O)c2c(c1O)C(=O)c1ccccc1C2=O` (stereo not drawn), in data set [1], the Survival ratio amounted to 3. The CC50 in data set [2] turned out to be 0.2 µg/mL (≈ 0.326 µM). The T/C in data set [3] was 245%.

Consider `CCCCCCCC(O)c1cc(O)c2c(c1O)C(=O)c1ccccc1C2=O` (stereo not drawn), for which, in data set [2], the CC50 was found to be 80 µg/mL (≈ 217 µM). This molecule returned a T/C in data set [3] of 103%.

For `O=C1c2ccccc2C(=O)c2c(O)c(CO)cc(O)c21`, in data set [2], the CC50 turned out to be 15 µg/mL (≈ 55.5 µM). This molecule also gave a T/C in data set [3] of 125%.

For `CCC(O)c1cc(O)c2c(c1O)C(=O)c1ccccc1C2=O` (stereo not drawn), the CC50 in data set [2] is 7.2 µg/mL (≈ 24.1 µM). The molecule also yielded a T/C in data set [3] of 135%.

As to `CCCCCCC(OC(=O)C(Cc1ccc(N(CCCl)CCCl)cc1)NC=O)c1cc(O)c2c(c1O)C(=O)c1ccccc1C2=O` (stereo not drawn), the Survival ratio in data set [1] is given as 0. Besides, the CC50 in data set [2] came out at 4.5 µg/mL (≈ 6.72 µM). In addition, the T/C in data set [3] is given as 210%.

Consider `N[C@@H](Cc1ccc(N(CCCl)CCCl)cc1)C(=O)O` [MELPHALAN], for which, in data set [1], the Survival ratio is 3. Further, in data set [2], the CC50 was found to be 0.89 µg/mL (≈ 2.92 µM). In data set [3], this molecule came in with a T/C of 225%.

The record behind these values is ChEMBL document CHEMBL1134090, “Esters of 2-(1-hydroxyalkyl)-1,4-dihydroxy-9,10-anthraquinones with melphalan as multifunctional anticancer agents” (Bioorg Med Chem Lett, 2001).
